We go through two molecules from patent publication US10973772B2, “Targeted delivery of hydrophilic drugs” (Double Bond Pharmaceuticals AB, priority 2014, dated 2021).

Series [1] in a line: In vivo distribution of doxorubicin in Californian rabbit liver. To be noted: intravenous, 5 mg/kg.
For series [2] the following is noted: Californian, rabbit, in vivo, 5 mg/kg, 0.5 h.
The conditions of series [3]: female, Wistar, rat, in vivo, 5 mg/kg, 2 h.
Series [4] is described as follows: In vivo distribution of doxorubicin in the liver of Wistar rats. The following applies: female, rat, intravenous, 5 mg/kg.
The conditions of series [5]: rabbit ear vein; 1.25 mg doxorubicin/kg vs 5.0 mg doxorubicin/kg doxorubicin hydrochloride. On the procedure:
FIG. 9 are graphs illustrating doxorubicin concentration in the liver and the heart upon intravenous injection of 5 mg/kg aqueous doxorubicin hydrochloride and of 1.25 mg/kg of the composition of the invention according to Example 1.
The doxorubicin composition of the invention according to Example 1 (R═C16 sulfonate) was administered to Californian rabbits by injection into the ear vein at a concentration of 1.25 mg doxorubicin/kg body weight. For comparison aqueous doxorubicin hydrochloride was administered in the same manner at a concentration of 5.0 mg doxorubicin/kg body weight.

Series [6] is described as follows: Solubility in aqueous ethanol (UV method). The series is classed as physicochemical. On the procedure: Solubility in aqueous ethanol was determined by centrifuging an adequate amount of freshly obtained colloid at 3000 rpm for 30-90 min, decanting the supernatant, adding 10 mL water and shaking the mixture, then repeating centrifugation, shaking and washing 3 times. The centrifugate from the final centrifugation was air dried for 72 h at room temperature followed by drying in vacuo for 24 h. A portion of the dried centrifugate (20 mg) was resuspended in 6 mL aqueous ethanol by stirring at room temperature for 24 h. The mixture was centrifuged at 3000 rpm for 10 min and the supernatant filtered through a 0.2 micrometer filter to remove aggregates of undissolved solid product. The solubility of the compound was determined by a UV method.

Where a name gives a salt, the structure may show the parent alone. Read-outs that look alike come from different tables or passages of the source.

For the molecule `COc1cccc2c1C(=O)c1c(O)c3c(c(O)c1C2=O)C[C@@](O)(C(=O)CO)C[C@@H]3O[C@H]1C[C@H](N)[C@H](O)[C@H](C)O1` [Cl^−, doxorubicin hydrochloride], the concentration at 0.5 h in series [1] turned out to be 0.392 ± 0.128 ng/g. Further, the “Increase of doxorubicin concentration in liver tissue” value in series [2] and in series [3] was “(1) times” throughout. The concentration at 2 h in series [4] was 11.5 ± 2.98 ng/g.

For `CCCCCCCCCCCCCCCCS(=O)(=O)O.COc1cccc2c1C(=O)c1c(O)c3c(c(O)c1C2=O)C[C@@](O)(C(=O)CO)C[C@@H]3O[C@H]1C[C@H](N)[C@H](O)[C@H](C)O1` [doxorubicin alkane sulfonate n=16], in series [5], the “Delivery of doxorubicin to the heart versus aqueous doxorubicin hydrochloride” value is listed as “no difference” and the “Efficiency of delivery of doxorubicin to the liver versus aqueous doxorubicin hydrochloride” value was “about four”. Also, the Solubility in series [6] (colloid doxorubicin alkyl sulfates and alkane sulfonates in 30% ethanol (v/v)) is 11.94 µg/mL. Besides, the “Solubility in 30% ethanol” value in series [6] (doxorubicin salts, 30% ethanol (Table 5)) came out at 11.94 µg/mL.
